Key:
[1] = double-blind, randomized comparative taste-test of oral alpha-lipoic acid solutions (throat irritation, overall liking); type: in vivo; settings: of seventeen subjects
[2] = background / U.S. Pat. No. 3,562,273; cited from earlier work
pH of aqueous solution = type: physicochemical; settings: noted by the inventors

pH of the salt (pH of aqueous solution) | Compound | number of subjects ranking the sample as the most irritating of the three samples [1] | pH in a 0.1M aqueous solution [2]
 | O=C(O)CCCC[C@@H]1CCSS1 [ALA, 5-[(3R)-dithiolan-3-yl]pentanoic acid] | fourteen | 
 | NC(CO)(CO)CO [trometamol, 2-amino-2-(hydroxymethyl)propane-1,3-diol] |  | 10.4
6.5 to 7.5 | NC(CO)(CO)CO.O=C(O)CCCCC1CCSS1 (stereo not shown) [TR-ALA, tris(hydroxymethyl) amino methane thioctate] |  | 6.5

Reference: patent publication US20070196442A1, “Method for improving the oral administration of alpha-lipoic acid” (priority 2006, published 2007)
